# Test results reported in US20100113613A1, “CYCLOHEXANE POLYALCOHOL FORMULATION FOR TREATMENT OF DISORDERS OF PROTEIN AGGREGATION” (WARATAH PHARMACEUTICALS, priority 2006, published 2010).
# Columns and labels:
# Aβ40 = target: T1, Aβ40 (Homo sapiens, UniProt P05067); assay: TgCRND8 mice 2 month ad libitum treatment from 5 months: brain and plasma Aβ40 ELISA; format: in vivo; conditions: 2 month treatment ad libitum 10 mg/ml from 5 months of age
# T1 construct: associated with reduced levels of insoluble Aβ40 and Aβ42 in the brain; from tissue; host or cells: brain homogenate (and plasma) of TgCRND8 transgenic mice
# Aβ plaque burden = assay: TgCRND8 mice 2 month ad libitum treatment from 5 months: Aβ plaque burden; format: in vivo; conditions: 2 months ad libitum from 5 months
# Aβ42 [1] = target: T2, Aβ42 (Homo sapiens, UniProt P05067); assay: TgCRND8 mice 2 month ad libitum treatment from 5 months: brain and plasma Aβ42 ELISA; format: in vivo; conditions: 2 month treatment ad libitum 10 mg/ml from 5 months of age
# T2 construct: Levels of Aβ42 in brain homogenates were assessed by ELISA; from tissue; host or cells: brain homogenate (and plasma) of TgCRND8 transgenic mice
# clinical = conditions: human, in vivo
# Excerpt: Dose levels were escalated between cohorts, such that the first cohort received the lowest dose level, the middle cohorts received intermediate dose levels, and the final cohort received the highest proposed dose level. Dose escalation was dependent on a review of safety data from the previously dosed cohort. […] Dosing started with the lowest dose and escalated to the highest dose. […] Subjects received their single dose of study drug on the study day 1 (Day 1). Throughout the day on Day 1, subjects were monitored for safety and PK samples were drawn. On Day 2, subjects were monitored for safety and PK samples were drawn.
# TgCRND8 mice [2] = assay: TgCRND8 mice therapeutic dosing (5-6 months): synaptic density; format: in vivo; conditions: therapeutic dosing regimen 5-6 months, p<0.001
# TgCRND8 mice [3] = system: TgCRND8 mice
# long term potentiation = assay: Long term potentiation experiments with amyloid oligomer; conditions: amyloid oligomer concentration 1-2 nM
# Experimental: More complex systems provide support for 5 μM (0.9 μg/mL) as an effective local concentration of the scyllo-cyclohexanehexyl. […] The effectiveness of this concentration was confirmed in acute cognitive dysfunction study in rats.
# plaque burden = assay: TgCRND8 effective dose range (0.3-3.3 mg/kg/day, 3 to 4 months): plaque burden; format: in vivo; conditions: TgCRND8 mice
# Experimental: (§1) The highest possible dose level of scyllo-cyclohexanehexyl compound was administered in a CRND8 mouse model. […]8 mice were dosed for 28 days from 3 to 4 months of age, i.e. a time when the disease phenotype would be newly established. This study design was selected to enhance the efficiency of the study (dose earlier) and maximise the information obtained (dose at a time when changes are of sufficient magnitude to detect a treatment effect). […] Cognitive function and plaque burden were assessed. • Improvement of cognitive function: Animals were assessed using the Morris Water Maze at 4 months (FIG. 11). […] This path length was similar to that observed in previous experiments in mice dosed with the compound in drinking water ad libitum. […] Thus a clear dose response was observed.
# TgCRND8 mice [4] = assay: TgCRND8 effective dose range (0.3-3.3 mg/kg/day, 3 to 4 months): Morris Water Maze; format: in vivo; conditions: for effect on cognitive dysfunction and plaque burden: oral gavage twice daily
# Experimental: as §1
# Aβ42 [5] = target: T2, Aβ42; assay: TgCRND8 dose response, dosed 5-6 months once daily: Aβ42 in brain homogenates by ELISA; format: in vivo; conditions: CRND8 mice 5-6 months, oral
# Experimental: Dose response was further examined in animals dosed from 5-6 months of age. Disease is more advanced at this later time point, so there may be greater clinical relevance. The dose levels investigated were 5, 10 and 30 mg/kg or vehicle, once daily. Accumulation of Aβ42 was assessed. • Reduction in amyloid accumulation in the brain: Levels of Aβ42 in brain homogenates were assessed by ELISA.
# [6] = system: naturally-expressed oligomers of Aβ; assay: In vitro effect on naturally-expressed Aβ oligomers; conditions: naturally-expressed oligomers at 1-2 nM; 5 μM = 0.9 μg/mL
# Sequence of naturally-expressed oligomers of Aβ (P05067 672-711 limits assumed): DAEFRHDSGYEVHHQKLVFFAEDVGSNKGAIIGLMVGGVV
# T2 sequence (P05067 672-713): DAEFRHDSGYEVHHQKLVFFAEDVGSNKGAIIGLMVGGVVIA
# T1 sequence (P05067 672-711): as the sequence (P05067 672-711 limits assumed) above
molecule,measurement,setting,value
"OC1C(O)C(O)C(O)C(O)C1O (centres unmarked) [AZD-103, scyllo-inositol]",Plasma Aβ levels Aβ40,Aβ40,4507 ± 207 pg/mL
same,growth of plaques by size distribution,Aβ plaque burden,effective at inhibiting the growth of plaques of all sizes
same,percent brain area covered in plaques,Aβ plaque burden; P=0.0001,significantly reduced
same,Plasma Aβ levels Aβ42,Aβ42 [1],3035 ± 236 pg/mL
same,"mean elimination half-life (t1/2), range over doses",clinical; po,13 24
same,CL/F,"clinical; po, 500 mg",13.67 ± 5.49 L/h
same,CL/F,"clinical; po, 1000 mg",8.51 ± 2.78 L/h
same,CL/F,"clinical; po, 2000 mg",9.59 ± 1.80 L/h
same,CL/F,"clinical; po, 3500 mg",7.71 ± 1.59 L/h
same,CL/F,"clinical; po, 5000 mg",10.04 ± 1.49 L/h
same,Vd,"clinical; male, 7000 mg",214 L
same,half-life,"clinical; male, 7000 mg",18.4 h
same,share of the AUC accounted for in the first 12 hrs,"clinical; male, po",80-85%
same,AUC(0-inf),"clinical; male, po, 500 mg",42.5 ± 22.1 µg·h/mL
same,AUC(0-t),"clinical; male, po, 500 mg",29.9 ± 7.11 µg·h/mL
same,Cmax,"clinical; male, po, 500 mg",5.83 ± 1.83 µg/mL
same,MRT,"clinical; male, po, 500 mg",19.1 ± 21.8 h
same,Tmax,"clinical; male, po, 500 mg",4 ± 1.55 h
same,half-life,"clinical; male, po, 500 mg",13.3 ± 16.7 h
same,AUC(0-inf),"clinical; male, po, 1000 mg",130 ± 44.4 µg·h/mL
same,Cmax,"clinical; male, po, 1000 mg",17 ± 5.29 µg/mL
same,MRT,"clinical; male, po, 1000 mg",19.7 ± 3.17 h
same,Tmax,"clinical; male, po, 1000 mg",3.25 ± 1.47 h
same,half-life,"clinical; male, po, 1000 mg",22.5 ± 5.75 h
same,AUC(0-inf),"clinical; male, po, 2000 mg",215 ± 41.9 µg·h/mL
same,AUC(0-t),"clinical; male, po, 2000 mg",194 ± 36.1 µg·h/mL
same,Cmax,"clinical; male, po, 2000 mg",33.1 ± 7.57 µg/mL
same,MRT,"clinical; male, po, 2000 mg",16.3 ± 3.99 h
same,Tmax,"clinical; male, po, 2000 mg",2.75 ± 0.61 h
same,half-life,"clinical; male, po, 2000 mg",23.9 ± 7.24 h
same,AUC(0-inf),"clinical; male, po, 3500 mg",467 ± 77.7 µg·h/mL
same,AUC(0-t),"clinical; male, po, 3500 mg",441 ± 71.4 µg·h/mL
same,Cmax,"clinical; male, po, 3500 mg",74.6 ± 9.24 µg/mL
same,MRT,"clinical; male, po, 3500 mg",11 ± 1.43 h
same,Tmax,"clinical; male, po, 3500 mg",2.75 ± 0.61 h
same,half-life,"clinical; male, po, 3500 mg",20.3 ± 3.09 h
same,AUC(0-inf),"clinical; male, po, 5000 mg",507 ± 72 µg·h/mL
same,AUC(0-t),"clinical; male, po, 5000 mg",491 ± 73.2 µg·h/mL
same,Cmax,"clinical; male, po, 5000 mg",110 ± 26.9 µg/mL
same,MRT,"clinical; male, po, 5000 mg",8.23 ± 2 h
same,Tmax,"clinical; male, po, 5000 mg",2.42 ± 0.66 h
same,half-life,"clinical; male, po, 5000 mg",16.9 ± 7.1 h
same,AUC(0-inf),"clinical; male, po, 7000 mg",885 ± 151 µg·h/mL
same,AUC(0-t),"clinical; male, po, 7000 mg",860 ± 148 µg·h/mL
same,Cmax,"clinical; male, po, 7000 mg",155 ± 20.4 µg/mL
same,Tmax,"clinical; male, po, 7000 mg",2.42 ± 0.67 h
same,half-life,"clinical; male, po, 7000 mg",18.4 ± 4.64 h
same,synaptic density,TgCRND8 mice [2],increased synaptic density
same,"twice-daily oral gavage vs one daily dose at equivalent doses, reversing cognitive deficits","TgCRND8 mice [3]; TgCRND8 mice, dose finding studies",more effective than one daily dose
same,adverse effects in the mice,"TgCRND8 mice [3]; mouse, in vivo",no evidence of adverse effects
scyllo-inositol [AZD-103],lowest maximally-effective dose level,long term potentiation,5 µM
same,plaque parameters (plaque count and brain plaque area),"plaque burden; 0.3 mg/kg/day, 28 days from 3 to 4 months",indistinguishable from untreated controls
same,plaque parameters (plaque count and brain plaque area),"plaque burden; 1 mg/kg/day, plaque count p=0.02, plaque area p=0.011",significantly reduced
same,plaque parameters (plaque count and brain plaque area),"plaque burden; 3.3 mg/kg/day, plaque count p<0.0001, plaque area p<0.001",greatest reduction in plaque burden
same,swim path length vs untreated controls,"TgCRND8 mice [4]; TgCRND8 mice, 0.3 mg/kg/day, 28 days from 3 to 4 months",indistinguishable from untreated controls
same,effect on cognitive dysfunction and plaque burden,"TgCRND8 mice [4]; TgCRND8 mice, 0.3 mg/kg/day, compared to untreated animals",no observed effect
same,effect on cognitive dysfunction and plaque burden,"TgCRND8 mice [4]; TgCRND8 mice, 1.0 mg/kg/day",partial effectiveness
same,swim path length on day 5 of training vs untreated animals,"TgCRND8 mice [4]; TgCRND8 mice, 3.3 mg/kg/day, 28 days from 3 to 4 months, p=0.04",significantly shorter swim path length
same,effect on cognitive dysfunction and plaque burden,"TgCRND8 mice [4]; TgCRND8 mice, 3.3 mg/kg/day",significant alleviation of cognitive dysfunction and reduction in plaque burden
same,dose providing efficacy in terms of behaviour and Aβ accumulation,"TgCRND8 mice [4]; young CRND8 mice dosed 12-16 weeks of age, oral",3.3 mg/kg/day
same,dose showing maximum effectiveness at reducing plaques,Aβ42 [5],30 mg/kg/day
same,concentration showing greater consistency of effect,[6],5 µM
